Laboratory results taken from patent publication US12263172B2, “Toll-like receptor agonists for use in the treatment of hepatitis b” (priority 2019, dated 2025).
“And” between values parts separate entries of the source, which are not always exact repeats. Identical values can stand only once. “Also recorded” adds a separate entry of the source.

Test: Phase 1 single-ascending dose (Part 1): safety and tolerability in healthy adults
Assay type: in vivo, human
Protocol: This ongoing trial is a Phase 1 randomized, double-blind, placebo-controlled study in male and female healthy adult volunteers aged 18-55 years. All volunteers provided written, informed consent.
All volunteers were followed up for 4 weeks and safety and tolerability were continuously assessed throughout the study. All adverse events (AEs) were recorded from the time of consent to the completion visit and were graded using the DAIDS toxicity grading scale. Volunteers also underwent physical examinations, electrocardiograms, vital sign checks and clinical laboratory parameters (chemistry, haematology, urinalysis).

CCCCOc1nc(N)c2[nH]cc(Cc3ccc(CN4CCCC4)cc3)c2n1 [Compound 4]
vital signs: Supine SBP (mmHg) Grade 1 (single dose 1.25 mg fed): 0 n (%) | vital signs: Supine SBP (mmHg) Grade 2 (single dose 1.25 mg fed): 0 n (%) | vital signs: Supine SBP (mmHg) Low (single dose 1.25 mg fed): 0 n (%) | vital signs: Supine pulse (bpm) Low (single dose 1.25 mg fed): 0 n (%) | ↑ AST Grade 3 (laboratory abnormality) (single dose 1.25 mg fed): 0 n (%) | ↑ Amylase Grade 2 (laboratory abnormality) (single dose 1.25 mg fed): 0 n (%) | ↑ Cholesterol Grade 2 (laboratory abnormality) (single dose 1.25 mg fed): 1 (14) n (%) | ↑ Creatine kinase Grade 2 (laboratory abnormality) (single dose 1.25 mg fed): 0 n (%) | ↑ Creatine kinase Grade 4 (laboratory abnormality) (single dose 1.25 mg fed): 0 n (%) | ↑ Glucose Grade 2 (laboratory abnormality) (single dose 1.25 mg fed): 0 n (%) | ↑ LDL cholesterol Grade 2 (laboratory abnormality) (single dose 1.25 mg fed): 1 (14) n (%) | ↑ LDL cholesterol Grade 3 (laboratory abnormality) (single dose 1.25 mg fed): 0 n (%) | ↑ Lipase Grade 2 (laboratory abnormality) (single dose 1.25 mg fed): 0 n (%) | ↑ Pancreatic amylase Grade 2 (laboratory abnormality) (single dose 1.25 mg fed): 0 n (%) | ↑ Potassium Grade 2 (laboratory abnormality) (single dose 1.25 mg fed): 0 n (%) | ↑ Sodium Grade 2 (laboratory abnormality) (single dose 1.25 mg fed): 0 n (%) | ↑ Triglycerides Grade 2 (laboratory abnormality) (single dose 1.25 mg fed): 1 (14) n (%) | ↑ Triglycerides Grade 3 (laboratory abnormality) (single dose 1.25 mg fed): 0 n (%) | ↓ Bicarbonate Grade 2 (laboratory abnormality) (single dose 1.25 mg fed): 0 n (%) | ↓ GFR Grade 2 (laboratory abnormality) (single dose 1.25 mg fed): 0 n (%) | ↓ Lymphocytes Grade 2 (laboratory abnormality) (single dose 1.25 mg fed): 0 n (%) | ↓ Lymphocytes Grade 4 (laboratory abnormality) (single dose 1.25 mg fed): 0 n (%) | ↓ Neutrophils Grade 2 (laboratory abnormality) (single dose 1.25 mg fed): 0 n (%) | ↓ Phosphate Grade 2 (laboratory abnormality) (single dose 1.25 mg fed): 1 (14) n (%) | subjects with Grade 2 treatment-related AEs (pyrexia, headache and hypertension) (single dose 1.8 mg): 2 (33.3%) n (%) | subjects with contact dermatitis (AE) (single dose 1.8 mg): 3 (50.0%) n (%) | subjects with grade 1 increase in temperature around 12 hours after dosing (single dose 1.8 mg): Two | Any AE (treatment-emergent) (single dose 1.8 mg fasted): 5 (83) n (%) | Back pain Grade 1 (treatment-emergent AE) (single dose 1.8 mg fasted): 2 (33) n (%) | Chills Grade 1 (treatment-emergent AE) (single dose 1.8 mg fasted): 2 (33) n (%) | Contact dermatitis Grade 1 (treatment-emergent AE) (single dose 1.8 mg fasted): 3 (50) n (%) | Dizziness Grade 1 (treatment-emergent AE) (single dose 1.8 mg fasted): 2 (33) n (%) | ECG actual value: Heart rate (bpm) Low (single dose 1.8 mg fasted): 0 n (%) | ECG actual value: QRS (ms) High (single dose 1.8 mg fasted): 0 n (%) | ECG actual value: QTcB (ms) ]450; 480] (single dose 1.8 mg fasted): 0 n (%) | ECG actual value: QTcF (ms) ]450; 480] (single dose 1.8 mg fasted): 0 n (%) | ECG change from reference: QTcB (ms) [30; 60] (single dose 1.8 mg fasted): 1 (16.7%) n (%) | ECG change from reference: QTcF (ms) [30; 60] (single dose 1.8 mg fasted): 0 n (%) | Headache Grade 1 (treatment-emergent AE) (single dose 1.8 mg fasted): 0 n (%) | Headache Grade 2 (treatment-emergent AE) (single dose 1.8 mg fasted): 1 (17) n (%) | Hypertension Grade 1 (treatment-emergent AE) (single dose 1.8 mg fasted): 1 (17) n (%) | Hypertension Grade 2 (treatment-emergent AE) (single dose 1.8 mg fasted): 1 (17) n (%) | Myalgia Grade 1 (treatment-emergent AE) (single dose 1.8 mg fasted): 1 (17) n (%) | Oropharyngeal pain Grade 1 (treatment-emergent AE) (single dose 1.8 mg fasted): 1 (17) n (%) | Pyrexia Grade 1 (treatment-emergent AE) (single dose 1.8 mg fasted): 1 (17) n (%) | Pyrexia Grade 2 (treatment-emergent AE) (single dose 1.8 mg fasted): 1 (17) n (%) | URTI Grade 1 (treatment-emergent AE) (single dose 1.8 mg fasted): 1 (17) n (%) | lab toxicity: Amylase (U/L), upwards, Grade 1 (single dose 1.8 mg fasted): 1 (16.7%) n (%) | lab toxicity: Amylase (U/L), upwards, Grade 2 (single dose 1.8 mg fasted): 0 n (%) | lab toxicity: Cholesterol (mmol/L), upwards, Grade 1 (single dose 1.8 mg fasted): 1 (16.7%) n (%) | lab toxicity: Cholesterol (mmol/L), upwards, Grade 2 (single dose 1.8 mg fasted): 0 n (%) | lab toxicity: Creatine kinase (U/L), upwards, Grade 1 (single dose 1.8 mg fasted): 0 n (%) | lab toxicity: Creatine kinase (U/L), upwards, Grade 2 (single dose 1.8 mg fasted): 1 (16.7%) n (%) | lab toxicity: Creatine kinase (U/L), upwards, Grade 4 (single dose 1.8 mg fasted): 0 n (%) | lab toxicity: Glucose (mmol/L), upwards, Grade 1 (single dose 1.8 mg fasted): 0 n (%) | lab toxicity: Glucose (mmol/L), upwards, Grade 2 (single dose 1.8 mg fasted): 0 n (%) | lab toxicity: LDL cholesterol (mmol/L, calculated), upwards, Grade 1 (single dose 1.8 mg fasted): 0 n (%) | lab toxicity: LDL cholesterol (mmol/L, calculated), upwards, Grade 2 (single dose 1.8 mg fasted): 0 n (%) | lab toxicity: LDL cholesterol (mmol/L, calculated), upwards, Grade 3 (single dose 1.8 mg fasted): 0 n (%) | lab toxicity: Lymphocytes (giga/L), downwards, Grade 2 (single dose 1.8 mg fasted): 0 n (%) | lab toxicity: Lymphocytes (giga/L), downwards, Grade 4 (single dose 1.8 mg fasted): 2 (33.3%) n (%) | lab toxicity: Neutrophils, segmented (giga/L), downwards, Grade 1 (single dose 1.8 mg fasted): 0 n (%) | lab toxicity: Neutrophils, segmented (giga/L), downwards, Grade 2 (single dose 1.8 mg fasted): 1 (16.7%) n (%) | lab toxicity: Platelets (giga/L), downwards, Grade 1 (single dose 1.8 mg fasted): 2 (33.3%) n (%) | lab toxicity: Sodium (mmol/L), upwards, Grade 1 (single dose 1.8 mg fasted): 2 (33.3%) n (%) | lab toxicity: Sodium (mmol/L), upwards, Grade 2 (single dose 1.8 mg fasted): 1 (16.7%) n (%) | lab toxicity: Triglycerides (mmol/L), upwards, Grade 1 (single dose 1.8 mg fasted): 5 (83.3%) n (%) | lab toxicity: Triglycerides (mmol/L), upwards, Grade 2 (single dose 1.8 mg fasted): 0 n (%) | lab toxicity: Triglycerides (mmol/L), upwards, Grade 3 (single dose 1.8 mg fasted): 1 (16.7%) n (%) | lab toxicity: Urate (μmol/L), upwards, Grade 1 (single dose 1.8 mg fasted): 1 (16.7%) n (%) | subjects with at least one AE (single dose 1.8 mg fasted): 5 (83.3%) n (%) | subjects with at least one AE for which any study drug or study was permanently stopped (single dose 1.8 mg fasted): 0 n (%) | subjects with at least one AE for which any study drug or study was temporarily stopped (single dose 1.8 mg fasted): 0 n (%) | subjects with at least one AE possibly related to any study drug (single dose 1.8 mg fasted): 1 (16.7%) n (%) | subjects with at least one AE possibly, probably or very likely related to any study drug (single dose 1.8 mg fasted): 2 (33.3%) n (%) | subjects with at least one AE probably related to any study drug (single dose 1.8 mg fasted): 2 (33.3%) n (%) | subjects with at least one SAE (single dose 1.8 mg fasted): 0 n (%) | subjects with at least one fatal AE (single dose 1.8 mg fasted): 0 n (%) | subjects with at least one grade 1 AE (single dose 1.8 mg fasted): 3 (50.0%) n (%) | subjects with at least one grade 2 AE (single dose 1.8 mg fasted): 2 (33.3%) n (%) | subjects with at least one grade 3 or 4 AE (single dose 1.8 mg fasted): 0 n (%) | subjects with fever and flu-like symptoms (flu-like AEs and lymphopenia) (single dose 1.8 mg fasted): 2 and 2/6 | subjects with high VLDL cholesterol levels (non-graded) (single dose 1.8 mg fasted): 4 (66.7%) n (%) | subjects with high values for segmented neutrophils/leukocytes (non-graded) (single dose 1.8 mg fasted): 4 (66.7%) n (%) | treatment-related AE: Any AE (single dose 1.8 mg fasted): 2 (33.3%) n (%) | treatment-related AE: Chills (single dose 1.8 mg fasted): 2 (33.3%) n (%) | treatment-related AE: Dizziness (single dose 1.8 mg fasted): 2 (33.3%) n (%) | treatment-related AE: General disorders and administration site conditions (single dose 1.8 mg fasted): 2 (33.3%) n (%) | treatment-related AE: Headache (single dose 1.8 mg fasted): 1 (16.7%) n (%) | treatment-related AE: Hypertension (single dose 1.8 mg fasted): 2 (33.3%) n (%) | treatment-related AE: Myalgia (single dose 1.8 mg fasted): 1 (16.7%) n (%) | treatment-related AE: Nervous system disorders (single dose 1.8 mg fasted): 2 (33.3%) n (%) | treatment-related AE: Oropharyngeal pain (single dose 1.8 mg fasted): 1 (16.7%) n (%) | treatment-related AE: Pyrexia (single dose 1.8 mg fasted): 2 (33.3%) n (%) | treatment-related AE: Respiratory, thoracic and mediastinal disorders (single dose 1.8 mg fasted): 1 (16.7%) n (%) | treatment-related AE: Vascular disorder (single dose 1.8 mg fasted): 2 (33.3%) n (%) | vital signs: Respiratory rate (brpm) Grade 1 (single dose 1.8 mg fasted): 2 (33.3%) n (%) | vital signs: Respiratory rate (brpm) Grade 2 (single dose 1.8 mg fasted): 1 (16.7%) n (%) | vital signs: SaO2 (%) 90% to <95% (single dose 1.8 mg fasted): 0 n (%) | vital signs: SaO2 (%) 95% to <98% (single dose 1.8 mg fasted): 2 (33.3%) n (%) | vital signs: Standing DBP (mmHg) Grade 1 (single dose 1.8 mg fasted): 3 (50.0%) n (%) | vital signs: Standing DBP (mmHg) Grade 2 (single dose 1.8 mg fasted): 1 (16.7%) n (%) | vital signs: Standing DBP (mmHg) Grade 3 (single dose 1.8 mg fasted): 1 (16.7%) n (%) | vital signs: Standing DBP (mmHg) Low (single dose 1.8 mg fasted): 0 n (%) | vital signs: Standing SBP (mmHg) Grade 1 (single dose 1.8 mg fasted): 1 (16.7%) n (%) | vital signs: Standing SBP (mmHg) Low (single dose 1.8 mg fasted): 0 n (%) | vital signs: Standing pulse (bpm) High (single dose 1.8 mg fasted): 0 n (%) | vital signs: Standing pulse (bpm) Low (single dose 1.8 mg fasted): 0 n (%) | vital signs: Supine DBP (mmHg) Grade 1 (single dose 1.8 mg fasted): 1 (16.7%) n (%) | vital signs: Supine DBP (mmHg) Low (single dose 1.8 mg fasted): 0 n (%) | vital signs: Supine SBP (mmHg) Grade 1 (single dose 1.8 mg fasted): 1 (16.7%) n (%) | vital signs: Supine SBP (mmHg) Grade 2 (single dose 1.8 mg fasted): 1 (16.7%) n (%) | vital signs: Supine SBP (mmHg) Low (single dose 1.8 mg fasted): 0 n (%) | vital signs: Supine pulse (bpm) Low (single dose 1.8 mg fasted): 1 (16.7%) n (%) | ↑ AST Grade 3 (laboratory abnormality) (single dose 1.8 mg fasted): 0 n (%) | ↑ Amylase Grade 2 (laboratory abnormality) (single dose 1.8 mg fasted): 0 n (%) | ↑ Cholesterol Grade 2 (laboratory abnormality) (single dose 1.8 mg fasted): 1/5 | ↑ Creatine kinase Grade 2 (laboratory abnormality) (single dose 1.8 mg fasted): 1 n (%) | ↑ Creatine kinase Grade 4 (laboratory abnormality) (single dose 1.8 mg fasted): 0 n (%) | ↑ Glucose Grade 2 (laboratory abnormality) (single dose 1.8 mg fasted): 0 n (%) | ↑ LDL cholesterol Grade 2 (laboratory abnormality) (single dose 1.8 mg fasted): 0 n (%) | ↑ LDL cholesterol Grade 3 (laboratory abnormality) (single dose 1.8 mg fasted): 0 n (%) | ↑ Lipase Grade 2 (laboratory abnormality) (single dose 1.8 mg fasted): 1/5 | ↑ Pancreatic amylase Grade 2 (laboratory abnormality) (single dose 1.8 mg fasted): 1/2 | ↑ Potassium Grade 2 (laboratory abnormality) (single dose 1.8 mg fasted): 1/5 | ↑ Sodium Grade 2 (laboratory abnormality) (single dose 1.8 mg fasted): 1 n (%) | ↑ Triglycerides Grade 2 (laboratory abnormality) (single dose 1.8 mg fasted): 0 n (%) | ↑ Triglycerides Grade 3 (laboratory abnormality) (single dose 1.8 mg fasted): 1 n (%) | ↓ Bicarbonate Grade 2 (laboratory abnormality) (single dose 1.8 mg fasted): 1 n (%) | ↓ GFR Grade 2 (laboratory abnormality) (single dose 1.8 mg fasted): 0 n (%) | ↓ Lymphocytes Grade 2 (laboratory abnormality) (single dose 1.8 mg fasted): 0 n (%) | ↓ Lymphocytes Grade 4 (laboratory abnormality) (single dose 1.8 mg fasted): 2 n (%) | ↓ Neutrophils Grade 2 (laboratory abnormality) (single dose 1.8 mg fasted): 1 n (%) | ↓ Phosphate Grade 2 (laboratory abnormality) (single dose 1.8 mg fasted): 0 n (%) | lab toxicity: GFR from creatinine adjusted for BSA (mL/s/1.73m^2), downwards, Grade 2 (single dose 1.8 mg fasted, n = 1 with data): 0 n (%) | safety and tolerability (single oral doses of 0.2-1.8 mg): well tolerated with no major safety concerns; also recorded: generally considered safe and well tolerated
